The target of assay [1] is T1, histone deacetylase, subtype 1 (HDAC1) (Homo sapiens, UniProt Q13547).
T1 construct: Flag; made in house
The assay is described as follows: HDAC1-Flag assay (in vitro fluorescent deacetylation assay). The following applies: epitope-tagged human HDAC1 complex, substrate at Km, mean ± spread (N), read-out: HDAC Inhibition (IC50) nm. The assay is classed as biochemical. How it is done: Novel compounds were tested for their ability to inhibit histone deacetylase, subtype 1 (HDAC1) using an in vitro deacetylation assay. The enzyme source for this assay was an epitope-tagged human HDAC1 complex immuno-purified from stably expressing mammalian cells. The substrate consisted of a commercial product containing an acetylated lysine side chain (BIOMOL Research Laboratories, Inc., Plymouth Meeting, Pa.). Upon deacetylation of the substrate by incubation with the purified HDAC1 complex, a fluorophore is produced that is directly proportional to the level of deacetylation.

Assay [2] deals with murine erythroleukemia cell line SC9. The assay is described as follows: MTS assay (Cell Titer 96 Aqueous One Solution Cell Proliferation Assay). The format is cell-based. The note with it: Mus musculus; SC9 cells, 48 hours incubation with increasing concentrations, inhibition of proliferation; mean ± spread (N). The method, then:
The novel compounds of the present invention were tested for their ability to inhibit proliferation of the murine erythroleukemia cell line SC9.
The MTS assay, also referred to as the Cell Titer 96 Aqueous One Solution Cell Proliferation Assay, is a colorimetric method for determining the number of viable cells in proliferation, cytotoxicity or chemosensitivity assays. The MTS reagent contains a novel tetrazolium compound [3-(4,5-dimethylthiazol-2-yl)-5-(3-carboxymethoxyphenyl)-2-(4-sulfophenyl)-2H-tetrazolium, inner salt] and electron coupling reagent (phenazine ethosulfate; PES). Murine erythroleukemia cells (SC-9) were incubated with vehicle or increasing concentrations of compound for 48 hours. Cell proliferation was quantitated by adding a small amount of the MTS reagent directly to culture wells, incubating for 1-4 hours and then recording the absorbance at 490 nm with a 96-well plate reader. The quantity of formazan product, as measured by […] absorbance, is directly proportional to the number of living cells in culture.
(In general: Tetrazolium dyes change colour on reduction, which living cells bring about.)

[3] abbreviates: Table 1, compounds of formula II.

Among the data in US20090023718A1 (Aton Pharma, Inc., priority 2003, published 2009) are IC50 values, retold here.

Where two headings read alike, the source gives them in different places.

A word on the IC50: it is the concentration at which inhibition is half-maximal.

T1 sequence (Q13547 whole entry): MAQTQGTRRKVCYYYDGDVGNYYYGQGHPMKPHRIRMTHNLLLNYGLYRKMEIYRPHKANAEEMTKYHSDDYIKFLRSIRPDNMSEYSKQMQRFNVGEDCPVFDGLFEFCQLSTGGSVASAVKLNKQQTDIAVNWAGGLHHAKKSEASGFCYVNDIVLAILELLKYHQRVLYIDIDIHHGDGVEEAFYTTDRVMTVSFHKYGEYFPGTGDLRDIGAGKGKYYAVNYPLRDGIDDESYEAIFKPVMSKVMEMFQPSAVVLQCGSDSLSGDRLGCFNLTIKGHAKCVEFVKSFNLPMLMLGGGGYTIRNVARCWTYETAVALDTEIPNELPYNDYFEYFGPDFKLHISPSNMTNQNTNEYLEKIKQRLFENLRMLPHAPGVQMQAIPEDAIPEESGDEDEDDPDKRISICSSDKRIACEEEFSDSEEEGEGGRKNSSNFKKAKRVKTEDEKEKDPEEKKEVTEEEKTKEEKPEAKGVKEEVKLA

With `O=C(CCCCCC(=O)N(CC(=O)Nc1cccc2cccnc12)CC(=O)Nc1cccc2cccnc12)NO` [Compound 9, Heptanedioic acid bis-(quinolin-8-ylcarbamoylmethyl)-amide hydroxyamide], the values for the 50% inhibitory concentration (IC50) in assay [1] (setting [3]) and in assay [2] were 26.5 ± 6.3 nM and 52 ± 24.9 nM, respectively.
Regarding `O=C(CCCCCC(=O)N(CC(=O)Nc1ccccc1)CC(=O)NC1CCCCC1)NO` [Compound 11, Heptanedioic acid cyclohexylcarbamoylmethyl-phenylcarbamoylmethyl-amide hydroxyamide], the figures for the half-maximal inhibitory concentration (IC50) in assay [1] (setting [3]) and in assay [2] were 34.5 ± 12.7 nM and 705 nM, respectively.
Take `O=C(CCCCCC(=O)N(CC(=O)Nc1ccc(C(F)(F)F)cc1)CC(=O)Nc1ccc(C(F)(F)F)cc1)NO` [Compound 25, Heptanedioic acid bis-[(4-trifluoromethyl-phenylcarbamoyl)-methyl]-amide hydroxyamide]: the 50% inhibitory concentration (IC50) was determined as 89.5 ± 12 nM in assay [1] (setting [3]) and 340 nM in assay [2].
On to `O=C(CCCCCC(=O)N(CC(=O)Nc1ccc2c(c1)OCO2)CC(=O)Nc1ccc2c(c1)OCO2)NO` [Compound 29, Heptanedioic acid bis-(benzo[1,3]dioxol-5-ylcarbamoylmethyl)-amide hydroxyamide], for which the values for the IC50 in assay [1] (setting [3]) and in assay [2] were 22.5 ± 16.2 nM and 586 nM, respectively.
On to `COc1ccc2nc(NC(=O)CN(CC(=O)Nc3nc4ccc(OC)cc4s3)C(=O)CCCCCC(=O)NO)sc2c1` [Compound 34, Heptanedioic acid bis-[(6-methoxy-benzothiazol-2-ylcarbamoyl)-methyl]-amide hydroxyamide], for which the IC50 is 7.6 ± 5.6 nM in assay [1] (setting [3]) and 397 ± 98.2 nM in assay [2].
As to `O=C(CCCCCC(=O)N(CC(=O)Nc1nc2ccc(Cl)cc2s1)CC(=O)Nc1nc2ccc(Cl)cc2s1)NO` [Compound 35, Heptanedioic acid bis-[(6-chloro-benzothiazol-2-ylcarbamoyl)-methyl]-amide hydroxyamide], the results for the IC50 in assay [1] (setting [3]) and in assay [2] were 10.6 ± 7.7 nM and 645 nM, respectively.
For `Cc1cccc2sc(NC(=O)CN(CC(=O)Nc3nc4c(C)cccc4s3)C(=O)CCCCCC(=O)NO)nc12` [Compound 36, Heptanedioic acid bis-[(4-methyl-benzothiazol-2-ylcarbamoyl)-methyl]-amide hydroxyamide], in that order: 14.5 ± 4.9 nM and 275 ± 19 nM.
With `O=C(CCCCCC(=O)N(CC(=O)NC1CCc2ccccc21)CC(=O)NC1CCc2ccccc21)NO` (stereo not shown) [Compound 37, Heptanedioic acid bis-(indan-1-ylcarbamoylmethyl)-amide hydroxyamide], the half-maximal inhibitory concentration (IC50) is 71 ± 1.4 nM in assay [1] (setting [3]) and 388 nM in assay [2].
For `O=C(CCCCCC(=O)N(CC(=O)Nc1nc2ccc(F)cc2s1)CC(=O)Nc1nc2ccc(F)cc2s1)NO` [Compound 39, Heptanedioic acid bis-[(6-fluoro-benzothiazol-2-ylcarbamoyl)-methyl]-amide hydroxyamide], in that order: 31.5 ± 12 nM and 346 nM.
Turning to `O=C(CCCCCCN(CC(=O)Nc1ccccc1)CC(=O)Nc1ccccc1)NO` [Compound 41, 7-(Bis-phenylcarbamoylmethyl-amino)-heptanoic acid hydroxyamide], the IC50 in assay [1] (Table 2, compounds of formula III) worked out at 18.5 ± 3.5 nM; in assay [2], 332 nM.
As for `O=C(CCCCCCN(CCc1ccccc1)Cc1ccccc1)NO` [Compound 81], the IC50 amounted to 159 ± 14.1 nM in assay [1] (Table 4, compounds of formula V) and 934 nM in assay [2].
